Entries after “also recorded” stand apart in the source; their conditions may differ. Read-outs that look alike come from different tables or passages of the source.
Columns and labels:
[1] = biological target: T1, P2Y receptor (turkey erythrocyte membranes) (Meleagris gallopavo, UniProt P49652); experiment: Stimulation of phospholipase C (inositol phosphate formation) in turkey erythrocyte membranes; format: biochemical
T1 construct: from tissue; host or cells: washed turkey erythrocytes, ghosts prepared by hypotonic lysis
T1 sequence (P49652 whole entry): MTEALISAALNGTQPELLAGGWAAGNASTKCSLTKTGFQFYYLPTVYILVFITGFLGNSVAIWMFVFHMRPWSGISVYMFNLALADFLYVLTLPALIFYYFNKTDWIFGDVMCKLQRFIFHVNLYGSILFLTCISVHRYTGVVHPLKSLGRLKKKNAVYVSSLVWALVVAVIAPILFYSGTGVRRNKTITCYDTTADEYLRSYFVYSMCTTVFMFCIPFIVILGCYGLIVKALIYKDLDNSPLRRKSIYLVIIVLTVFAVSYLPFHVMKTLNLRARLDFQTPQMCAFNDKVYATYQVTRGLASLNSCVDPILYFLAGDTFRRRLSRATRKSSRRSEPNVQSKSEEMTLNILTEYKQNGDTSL
Method: Phospholipase C activity: Stimulation of inositol phosphate formation by compounds of the present invention was measured in turkey erythrocyte membranes as described by Harden et al., supra and Boyer et al., supra. The K0.5 values were averaged from 3-8 independently determined dose-response curves for each compound. Briefly, one ml of washed turkey erythrocytes was incubated in inositol-free medium (DMEM; Gibco) with 0.5-1 mCi of 2-[^3 H]myoinositol (20 Ci/mmol; American Radiolabeled Chemicals Inc., St. Louis, Mo.)for 18-24 h in a humidified atmosphere of 95% air 5% CO2 at 37° C. Erythrocyte ghosts were prepared by rapid lysis in hypotonic buffer (5 mM sodium phosphate, pH 7.4, 5 mM MgCl2, 1 mM EGTA) as described by Boyer et al., supra. Phospholipase C activity was measured in 25 μl of [^3 H]inositol-labeled ghosts (≈175 μg of protein, 200-500,000 cpm/assay) in a medium containing 424 μM CaC12, 0.91 mM MgSO4, 2 mM EGTA, 115 mM KCl, 5 mM KH2 PO4, and 10 mM Hepes, pH 7.0. Assay (100 μl or 200 μl final volume) contained 1 μM GTPγS and the indicated concentrations of nucleotide analogs. Ghosts were incubated at 30° C. for 5 min, and total [^3 H]inositol phosphates were quantitated after purification by anion exchange chromatography according to Harden et al. (supra) and Boyer et al. (supra).
(§1) Phospholipase C activity and muscle relaxation/contraction effects were assessed using the methods recited in Example 3. In FIGS. 10-12, which present the result of assays of phospholipase C activity in turkey erythrocyte membranes, the x-axis is marked in units of the log of the molar concentration of the putative P2Y receptor agonist tested and the y-axis is marked in units of the percentage of maximum production of [^3 H]-inositol phosphate generated. In FIG. 13, the x-axis is marked in units of the negative log of the molar concentration of applied putative P2Y receptor agonists and the y-axis is marked in units of the percentage relaxation of the 50 nM carbachol-induced contraction of guinea pig taenia coli. In FIG. 14, the x-axis is also marked in units of the negative log of the molar concentration of applied putative P2Y receptor agonists and the y-axis is marked in units of the percentage relaxation of the 1 μM noradrenalin-induced contraction of rabbit aorta endothelium. In FIGS. 15-16, the x-axis is marked in units of the negative log of the molar concentration of applied putative p^2X receptor agonists and the y-axis is marked in units of the percentage contraction relative to a standard dose of KCl (i.e., 60 mM), as assessed in guinea pig isolated urinary bladder detrussor muscle (FIG. 15) and guinea pig isolated vas deferens (FIG. 16).

[2] = system: P2Y receptor (aorta endothelium); experiment: Relaxation of noradrenalin-contracted rabbit aorta; details: rabbit aorta; log molar units
[3] = biological target: T2, P2Y receptor (taenia coli) (Cavia porcellus, UniProt P59902); experiment: Relaxation of carbachol-contracted guinea pig taenia coli
T2 construct: Relaxant responses mediated via P2Y receptors were examined in guinea pig taenia coli; from tissue; host or cells: guinea pig taenia coli (carbachol-contracted)
T2 sequence (P59902 whole entry): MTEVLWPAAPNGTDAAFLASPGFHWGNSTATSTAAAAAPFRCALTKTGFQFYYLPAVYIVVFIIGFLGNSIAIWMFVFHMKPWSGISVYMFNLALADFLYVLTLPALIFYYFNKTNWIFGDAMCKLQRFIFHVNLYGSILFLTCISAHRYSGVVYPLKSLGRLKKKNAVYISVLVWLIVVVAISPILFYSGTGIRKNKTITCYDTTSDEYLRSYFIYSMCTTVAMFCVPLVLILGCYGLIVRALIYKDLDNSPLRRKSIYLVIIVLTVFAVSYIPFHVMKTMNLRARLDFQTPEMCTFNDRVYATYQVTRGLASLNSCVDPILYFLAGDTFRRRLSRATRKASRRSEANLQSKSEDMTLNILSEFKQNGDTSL
From the text: Muscular relaxation/contraction: Relaxant responses mediated via P2Y receptors were examined in guinea pig taenia coli, rabbit aorta, and rabbit mesenteric artery, as described by Hoyle et al. (Br. J. Pharmacol., 107, 367-374 (1992a)), Burnstock et al., (Br. J. Pharmacol., 90, 383-391 (1987a)), and Rubino et al., (Eur. J. Pharmacol., 212, 237-240 (1992)). Contractile responses mediated via P2X receptors were examined in the guinea pig urinary bladder and vas deferens, and rabbit saphenous artery, also using standard methods (see Hoyle et al., supra., 1992; Hoyle et al., Br. J. Pharmacol., 99, 617-621 (1990); and Burnstock et al., Br. J. Pharmacol., 90, 111-120 (1987b)).
Muscular relaxation assays were performed as recited in Example 3. […] All curves are the mean of two determinations except for 5'-ATP (n=38), 2-hexylthio-ATP (n=4), 2-(5-hexenyl)thio-ATP (n=3), and 2-(2-4-nitrophenylethyl)thio-AMP (n=5). […] The pD2 value for 2-methylthio-ATP is 8.0±0.15, as reported by Hoyle et al., in Receptor Data for Biological Experiments, (H. N. Doods and J. C. A. Van Meel, eds., 1992b) at pp. 54-61.
as §1

[4] = biological target: P2Y receptor (mesenteric artery); experiment: Relaxation of rabbit mesenteric artery; details: log molar units
[5] = biological target: T3, P2X receptor (vas deferens) (Cavia porcellus, UniProt A0A286XVA9); experiment: Contraction of guinea pig isolated vas deferens
T3 sequence (A0A286XVA9 1-399): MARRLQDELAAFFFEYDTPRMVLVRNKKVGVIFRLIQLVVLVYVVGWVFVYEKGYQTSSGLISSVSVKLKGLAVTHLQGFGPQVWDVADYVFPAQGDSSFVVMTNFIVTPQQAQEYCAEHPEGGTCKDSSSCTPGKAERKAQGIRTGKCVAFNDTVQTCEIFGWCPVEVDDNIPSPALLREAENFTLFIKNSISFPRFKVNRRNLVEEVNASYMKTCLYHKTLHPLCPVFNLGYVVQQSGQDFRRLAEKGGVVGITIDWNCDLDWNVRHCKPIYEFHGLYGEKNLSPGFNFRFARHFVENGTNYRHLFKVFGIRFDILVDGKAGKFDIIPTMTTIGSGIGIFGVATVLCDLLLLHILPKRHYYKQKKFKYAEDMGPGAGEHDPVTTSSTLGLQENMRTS

[6] = turkey erythrocyte membranes, mean ± S.E.M. for at least 2 determinations, read-out: phosphatidyl inositol metabolism (K0.5, nM) erythrocyte
[7] = turkey erythrocyte membranes, read-out: K0.5

SMILES	EC50 [1, 6]	relaxation pD2, aorta [2]	relaxation pD2, mes. artery [4]	activity/potency in words, turkey erythrocyte ([1]; turkey erythrocyte membranes)	further results
CCCCCCCCCCCSc1nc(N)c2ncn([C@@H]3O[C@H](COP(=O)(O)O)[C@@H](O)[C@H]3O)c2n1 [2-undecylthio AMP]	1000 nM				
Nc1nc(SCCc2ccc([N+](=O)[O-])cc2)nc2c1ncn2[C@@H]1O[C@H](COP(=O)(O)O)[C@@H](O)[C@H]1O [2-(2-p-Nitrophenylethyl)-thio-AMP, 2-[2-(p-nitrophen)ethylthio]adenosine 5'-monophosphate]	3000 ± 1200 nM	6.1	5.0		activity/potency in words, taenia coli ([3]; guinea pig taenia coli): slightly less potent than ATP; relaxation pD2, taenia coli ([3]; guinea pig taenia coli, log molar units): 6.5
Nc1ncnc2c1ncn2[C@@H]1O[C@H](COP(=O)(O)OP(O)(O)=S)[C@@H](O)[C@H]1O [ADP-β-S, reference compound]	96 ± 27 nM	5.8	5.8	enhanced potency relative to the parent compound; also recorded: a very high affinity for the turkey erythrocyte P2Y receptor	activity/potency in words, taenia coli ([3]; guinea pig taenia coli): not in the taenia coli; also recorded: no greater affinity for the P2Y receptor in the guinea-pig taenia coli than ATP or ADP; times more potent than ADP, turkey erythrocyte ([1]; relative to ADP): ~400 times; times more potent than ATP, turkey erythrocyte ([1]; relative to ATP): approximately 140 times
CCCCCCCCSc1nc(N)c2ncn([C@@H]3O[C@H](COP(=O)(O)O)[C@@H](O)[C@H]3O)c2n1 [2-octylthio AMP]	295 ± 6 nM				
Nc1ncnc2c1ncn2[C@@H]1O[C@H](CO)[C@@H](O)[C@H]1O [Adenosine, reference compound]		5.7	6.0		EC50 [3]: 126000 nM; EC50 ([1]; at 10^-5 M, read-out: phosphatidyl inositol metabolism (K0.5) erythrocyte, class symbol): > 10000 nM
Nc1ccc(CCSc2nc(N)c3ncn([C@@H]4O[C@H](COP(=O)(O)OP(=O)(O)OP(=O)(O)O)[C@@H](O)[C@H]4O)c3n2)cc1 [2-(2-p-Aminophenylethyl)-thio-ATP, 2-[2-(p-Aminophen)ethylthio]adenosine 5'-triphosphate]	1.53 ± 0.21 nM			at least two orders of magnitude more potent	EC50 [1, 7]: 5 to 30 nM
CCSCCSc1nc(N)c2ncn([C@@H]3O[C@H](COP(=O)(O)O)[C@@H](O)[C@H]3O)c2n1	1000 nM				
Nc1ncnc2c1ncn2[C@@H]1O[C@H](COP(=O)(O)OP(=O)(O)OP(O)(O)=S)[C@@H](O)[C@H]1O [ATP-γ-S, reference compound]	1260 ± 380 nM	5.7	5.8	enhanced potency relative to the parent compound	activity/potency in words, taenia coli ([3]; guinea pig taenia coli): not in the taenia coli
Nc1nc(SCCc2ccccc2)nc2c1ncn2[C@@H]1O[C@H](COP(=O)(O)OP(=O)(O)OP(=O)(O)O)[C@@H](O)[C@H]1O [2-Phenylethylthio-ATP, 2-phenylethylthio-ATP]	30 ± 17 nM	6.5	6.2	at least two orders of magnitude more potent	EC50 [3]: 79.4 nM; EC50 [1, 7]: 5 to 30 nM
CCCCCCCCCCSc1nc(N)c2ncn([C@@H]3O[C@H](COP(=O)(O)O)[C@@H](O)[C@H]3O)c2n1 [2-decylthio AMP]	214 ± 2 nM				
O=P(O)(O)OP(=O)(O)OP(=O)(O)OC[C@H]1O[C@@H](n2cnc3c(NCCc4ccccc4)ncnc32)[C@H](O)[C@@H]1O [N^6 -phenylethyl ATP, N^6 -phenylethyl-ATP]	7000 nM				
CCCCCCCSc1nc(N)c2ncn([C@@H]3O[C@H](COP(=O)(O)O)[C@@H](O)[C@H]3O)c2n1 [2-hepylthio AMP]	1000 nM				
CCCCCCSc1nc(N)c2ncn([C@@H]3O[C@H](COP(=O)(O)O)[C@@H](O)[C@H]3O)c2n1 [2-hexylthio AMP]	58 ± 5 nM				
CCCCCSc1nc(N)c2ncn([C@@H]3O[C@H](COP(=O)(O)O)[C@@H](O)[C@H]3O)c2n1 [2-pentylthio AMP]	10000 nM				
N#CSCCCCCCCSc1nc(N)c2ncn([C@@H]3O[C@H](COP(=O)(O)OP(=O)(O)OP(=O)(O)O)[C@@H](O)[C@H]3O)c2n1 [2-[(7-Thiocyanatoheptyl)thio]-ATP, 2-(7-Thiocyanatoheptylthio)-adenosine-5'-triphosphate]	25.9 ± 10 nM			at least two orders of magnitude more potent	EC50 [1, 7]: 5 to 30 nM
Cn1c(=O)c2c(ncn2C)n(CCOP(=O)(O)OP(=O)(O)OP(=O)(O)O)c1=O [1,7-dimethyl-3-(2-hydroxyethyl)xanthine triphosphate]					EC50 [1, 7]: 100000 nM
Nc1nc(SCCCCCCCS)nc2c1ncn2[C@@H]1O[C@H](COP(=O)(O)OP(=O)(O)OP(=O)(O)O)[C@@H](O)[C@H]1O [2-(7-Thioheptyl)thio-ATP, 2-(7-Thioheptylthio)-adenosine-5'-triphosphate]	773 ± 328 nM				
NCCCCCCCSc1nc(N)c2ncn([C@@H]3O[C@H](COP(=O)(O)OP(=O)(O)OP(=O)(O)O)[C@@H](O)[C@H]3O)c2n1 [2-(7-Aminoheptyl)thio-ATP, 2-(7-Aminoheptylthio)-adenosine-5'-triphosphate]	72.8 ± 46.6 nM				
Nc1nc(SC2CCCCC2)nc2c1ncn2[C@@H]1O[C@H](COP(=O)(O)OP(=O)(O)OP(=O)(O)O)[C@@H](O)[C@H]1O [2-Cyclohexylthio-ATP, 2-cyclohexylthio-ATP]	24 ± 4 nM	6.3	5.9	at least two orders of magnitude more potent	EC50 [3]: 15.8 nM; EC50 [1, 7]: 5 to 30 nM
Nc1ncnc2c1ncn2[C@@H]1O[C@H](COP(=O)(O)OP(=O)(O)NP(=O)(O)O)[C@@H](O)[C@H]1O [AppNHp, reference compound]	4450 ± 1150 nM	5.5	6.6	equipotent with ATP in the erythrocytes	activity/potency in words, vas deferens [5]: an effect similar to methylene replacement; activity/potency in words, taenia coli ([3]; guinea pig taenia coli): an effect similar to methylene replacement
Cn1c(=O)c2c(ncn2CCOP(=O)(O)OP(=O)(O)OP(=O)(O)O)n(C)c1=O [β-Hydroxyethyltheophylline triphosphate]					EC50 [1, 7]: 26900 nM
